Literature values in patent US10450317B2, “Notch pathway signaling inhibitor compounds” (Eli Lilly and Company, priority 2015, dated 2019).

Columns and labels:
[1] = test system: auditory hair cells; settings: middle ear delivery, mice with acoustic trauma; cited from earlier work
[2] = systemic administration; cited from earlier work

SMILES: C[C@H](NC(=O)[C@@H](O)c1cc(F)cc(F)c1)C(=O)N[C@@H]1C(=O)N(C)c2ccccc2-c2ccccc21 [LY411575]
- hearing recovery by regeneration of auditory hair cells [1]: significant, measurable, hearing recovery
- toxicity [2]: Dose limiting toxicity was shown
